From patent publication US12098154B2, “Inhibitors of cyclin-dependent kinases” (Dana-Farber Cancer Institute, Inc., priority 2015, dated 2024)
Like-named read-outs stand apart in the source and are kept apart here.

Columns and labels:
CDK7/CycH = CDK7/CycH (Homo sapiens, UniProt P50613); assay: CDK7/CycH inhibition (Tables A1, A2); type: biochemical
CDK9/CycT = CDK9/CycT (Homo sapiens, UniProt P50750); assay: CDK9/CycT inhibition (Tables A1, A2); type: biochemical
Jurkat cells = assay: Jurkat proliferation assay (CellTiter-Glo); type: cell-based; details: Homo sapiens, Jurkat
Experimental: (§1) Jurkat cells were seeded at a density of 25,000 cells/well in 96-well plates. Cells were then treated with the indicated compounds in a 10-pt dose escalation format from 1 nM to 10 μM or DMSO control for 72 hours. After 72 hours, the cells were assayed using CellTiter-Glo Luminescent Cell Viability Assay (Promega) to determine cell viability by measuring the amount of ATP present in each sample cell population, which is an indicator of cell metabolic activity. […] All data points were performed in biological triplicate. Error bars are +/−SD.
as §1, with “hrs.” for “hours.”, “hrs,” for “hours, the”

CDK2/CycA = CDK2/CycA (Homo sapiens, UniProt P24941); assay: CDK2/CycA inhibition (Tables A1, A2); type: biochemical
[1] = system: TAL1, RUNX1, and MYB mRNA transcripts; assay: Jurkat gene expression analysis (qPCR); type: cell-based; details: 1 μM, 6 hrs, Jurkat cells
Experimental: Jurkat cells were seeded at a density of 5 million cells/10 mL. Cells were then treated with 200 nM or 1 μM of the indicated compounds or with DMSO control for 6 hours. Total RNA was extracted from 5 million cells using the RNeasy Plus Mini Kit (Qiagen) with a gDNA eliminator mini column to remove genomic DNA. mRNA was reverse transcribed into cDNA using the SuperScript III First-Strand Synthesis Kit (Life Technologies) using an oligo-dT primer to capture polyadenylated mRNAs. Quantitative PCR (qPCR) using transcript-specific Taqman probes (Applied Biosystems) was used to assess the effect of compound treatment on the expression of the indicated mRNA transcripts. All experiments shown were performed in biological triplicate. Each individual biological sample was qPCR-amplified in technical duplicate. Error bars are +/−SD. Expression data from drug treatments were normalized to GAPDH probe.
Jurkat cells were seeded at a density of 5 million cells/10 mL. Cells were then treated with 200 nM or 1 μM of the indicated compounds or with DMSO control for 6 hrs. […] Quantitative PCR (qPCR) using transcript-specific Taqman probes (Applied Biosystems) was used to assess the effect of compound treatment on the expression of the indicated mRNA transcripts. […]

[2] = 72 h, CellTiter-Glo, read-out: IC50 on Jurkat T-ALL cell proliferation

CDK9/CycT, sequence (P50750 whole entry): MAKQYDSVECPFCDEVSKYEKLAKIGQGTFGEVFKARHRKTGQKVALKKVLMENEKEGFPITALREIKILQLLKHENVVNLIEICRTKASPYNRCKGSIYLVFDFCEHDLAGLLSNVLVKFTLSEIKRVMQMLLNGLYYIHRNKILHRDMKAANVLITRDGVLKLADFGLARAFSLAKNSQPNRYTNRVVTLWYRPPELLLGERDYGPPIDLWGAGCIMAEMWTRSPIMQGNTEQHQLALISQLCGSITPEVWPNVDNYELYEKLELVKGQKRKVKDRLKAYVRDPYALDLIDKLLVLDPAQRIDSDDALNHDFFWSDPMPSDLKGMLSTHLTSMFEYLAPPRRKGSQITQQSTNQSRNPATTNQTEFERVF
CDK9/CycT, sequence (O60563 whole entry partner): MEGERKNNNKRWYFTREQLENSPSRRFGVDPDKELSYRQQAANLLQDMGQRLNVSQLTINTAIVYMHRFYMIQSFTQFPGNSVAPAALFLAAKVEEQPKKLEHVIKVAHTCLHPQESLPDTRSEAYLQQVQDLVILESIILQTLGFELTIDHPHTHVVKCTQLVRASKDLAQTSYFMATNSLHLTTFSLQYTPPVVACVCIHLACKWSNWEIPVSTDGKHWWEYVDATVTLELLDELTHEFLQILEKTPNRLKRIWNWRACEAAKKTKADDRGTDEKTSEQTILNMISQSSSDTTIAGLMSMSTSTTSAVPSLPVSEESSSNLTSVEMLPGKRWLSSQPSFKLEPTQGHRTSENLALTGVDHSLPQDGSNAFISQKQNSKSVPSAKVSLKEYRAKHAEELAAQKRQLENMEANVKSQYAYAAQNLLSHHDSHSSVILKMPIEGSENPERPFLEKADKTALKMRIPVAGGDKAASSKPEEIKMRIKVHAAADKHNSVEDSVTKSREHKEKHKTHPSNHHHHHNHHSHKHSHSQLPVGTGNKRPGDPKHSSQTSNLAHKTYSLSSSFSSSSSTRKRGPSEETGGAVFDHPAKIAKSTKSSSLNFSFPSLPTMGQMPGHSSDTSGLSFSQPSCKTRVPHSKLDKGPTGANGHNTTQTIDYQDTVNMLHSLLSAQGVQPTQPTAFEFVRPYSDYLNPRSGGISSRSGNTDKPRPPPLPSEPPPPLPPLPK
CDK7/CycH, sequence (P50613 whole entry): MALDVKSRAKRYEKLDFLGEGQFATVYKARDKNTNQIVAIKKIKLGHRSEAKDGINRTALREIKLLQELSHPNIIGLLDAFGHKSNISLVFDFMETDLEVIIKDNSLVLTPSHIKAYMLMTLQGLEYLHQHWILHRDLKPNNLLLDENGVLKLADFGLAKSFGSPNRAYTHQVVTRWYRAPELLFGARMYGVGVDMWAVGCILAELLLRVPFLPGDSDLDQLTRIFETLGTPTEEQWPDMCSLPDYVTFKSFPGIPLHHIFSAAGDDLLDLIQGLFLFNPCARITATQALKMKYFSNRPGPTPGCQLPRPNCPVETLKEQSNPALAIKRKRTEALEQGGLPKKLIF
CDK7/CycH, sequence (P51946 whole entry partner): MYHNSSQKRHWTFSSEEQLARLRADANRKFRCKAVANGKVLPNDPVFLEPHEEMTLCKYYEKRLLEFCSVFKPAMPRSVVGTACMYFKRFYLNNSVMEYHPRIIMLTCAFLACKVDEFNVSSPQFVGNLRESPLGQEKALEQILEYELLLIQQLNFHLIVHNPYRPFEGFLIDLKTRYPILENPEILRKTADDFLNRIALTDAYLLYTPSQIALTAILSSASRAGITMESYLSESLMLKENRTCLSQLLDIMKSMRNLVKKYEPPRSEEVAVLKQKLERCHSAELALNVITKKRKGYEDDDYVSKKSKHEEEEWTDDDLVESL

Row | Structure (SMILES) | IC50 (CDK7/CycH) | IC50 (CDK9/CycT) | IC50 (Jurkat cells; [2]) | IC50 (Jurkat cells; read-out: Jurkat IC50) | IC50 (CDK2/CycA) | Downregulation of TAL1, RUNX1, MYB transcripts [1]
1 | C=CC(=O)Nc1cccc(Nc2cc(N[C@H]3CC[C@H](N(C)C)CC3)nc3c(C(C)C)cnn23)c1 [SB1-E-26, N-(3-(5-((1r,4r)-4-(Dimethylamino)cyclohexylamino)-3-isopropylpyrazolo[1,5-a]pyrimidin-7-ylamino)phenyl)acrylamide] | 1090 nM | 429 nM | > 300 nM | 518 nM | 939 nM | potently reduce
2 | C=CC(=O)Nc1ccc(C(=O)Nc2cccc(Nc3nc(N4CCCCC4CCO)nc4c3ncn4C(C)C)c2)cc1 (stereo not drawn) [THZ-4-124-1, 4-Acrylamido-N-(3-((2-(2-(2-hydroxyethyl)piperidin-1-yl)-9-isopropyl-9H-purin-6-yl)amino)phenyl)benzamide] | 122 nM | 373 nM |  | 117 nM | 976 nM | 
3 | C=CC(=O)Nc1cccc(Nc2nc(N3CCCCC3CCO)nc3c2ncn3C(C)C)c1 (stereo not drawn) [THZ-4-134-1, N-(3-((2-(2-(2-Hydroxyethyl)piperidin-1-yl)-9-isopropyl-9H-purin-6-yl)amino)phenyl)acrylamide] | 1180 nM | 379 nM |  | 522 nM | 163 nM | 

Continued, in another order:

Row | IC50 (CDK7/CycH) | IC50 (CDK9/CycT) | IC50 (Jurkat cells; [2]) | IC50 (Jurkat cells; read-out: Jurkat IC50) | IC50 (CDK2/CycA) | Structure (SMILES) | Downregulation of TAL1, RUNX1, MYB transcripts [1]
4 | 1210 nM | 226 nM | > 300 nM | 318 nM | 1220 nM | C=CC(=O)Nc1cccc(Nc2cc(N[C@H]3CC[C@H](N(C)C)CC3)nc3c(CC)cnn23)c1 [SB1-E-21, N-(3-(5-((1r,4r)-4-(Dimethylamino)cyclohexylamino)-3-ethylpyrazolo[1,5-a]pyrimidin-7-ylamino)phenyl)acrylamide] | potently reduce
5 | 46.8 nM | 73.4 nM |  | 1040 nM | 17100 nM | CCc1cnn2c(Nc3cccc(NC(=O)c4ccc(NC(=O)/C=C/CN(C)C)cc4)c3)cc(N3CCCC(N)C3)nc12 (stereo not drawn) [THZ-4-128-1, (E)-N-(3-((5-(3-Aminopiperidin-1-yl)-3-ethylpyrazolo[1,5-a]pyrimidin-7-yl)amino)phenyl)-4-(4-(dimethylamino)but-2-enamido)benzamide] | 
